Laboratory results reported in patent US20230174584A1, “Antibiotic Compounds” (priority 2019, published 2023).

Experiments:
E. faecium E7403 = test: MIC assay; assay type: cell-based, Enterococcus faecium
Summary of the method: (§1)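 We measured MICs by CLSI broth microdilution with polysorbate 80 (0.002%) in TSB, a 10^6 CFU/mL inoculum, and a 24 h, 37 °C shaken incubation.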

E. faecium E8237 = test: MIC assay; assay type: cell-based, Enterococcus faecium
Summary of the method: as §1

E. faecium E7424 = test: MIC assay; assay type: cell-based, Enterococcus faecium
Summary of the method: as §1

E. faecium E8218 = test: MIC assay; assay type: cell-based, Enterococcus faecium
Summary of the method: as §1

E. faecium E7413 = test: MIC assay; assay type: cell-based, Enterococcus faecium
Summary of the method: as §1

E. faecium E6016 = test: MIC assay; assay type: cell-based, Enterococcus faecium
Summary of the method: as §1

E. faecium E0745 = test: MIC assay; assay type: cell-based, Enterococcus faecium
Summary of the method: as §1

E. faecium E7464 = test: MIC assay; assay type: cell-based, Enterococcus faecium
Summary of the method: as §1

E. faecium E0300 = test: MIC assay; assay type: cell-based, Enterococcus faecium
Summary of the method: as §1

E. faecium E0013 = test: MIC assay; assay type: cell-based, Enterococcus faecium
Summary of the method: as §1

E. faecium E1130 = test: MIC assay; assay type: cell-based, Enterococcus faecium
Summary of the method: as §1

E. faecium E0506 = test: MIC assay; assay type: cell-based, Enterococcus faecium
Summary of the method: as §1

E. faecium EO321 = test: MIC assay; assay type: cell-based, Enterococcus faecium
Summary of the method: as §1

E. faecium E7329 = test: MIC assay; assay type: cell-based, Enterococcus faecium
Summary of the method: as §1

E. faecium E7401 = test: MIC assay; assay type: cell-based, Enterococcus faecium
Summary of the method: as §1

E. faecium E2297 = test: MIC assay; assay type: cell-based, Enterococcus faecium
Summary of the method: as §1

E. faecium E8235 = test: MIC assay; assay type: cell-based, Enterococcus faecium
Summary of the method: as §1

E. faecium E0333 = test: MIC assay; assay type: cell-based, Enterococcus faecium
Summary of the method: as §1

E. faecium E980 = test: MIC assay; assay type: cell-based, Enterococcus faecium
Summary of the method: as §1

E. faecalis E1246 = test: MIC assay; assay type: cell-based, Enterococcus faecalis
Summary of the method: as §1

[1] = tested on: panel of 31 vancomycin-resistant E. faecium strains; test: MIC assay, MIC50/MIC90 over panel; assay type: cell-based, Enterococcus faecium
Experimental: The antibacterial activity of the compounds was tested against a panel of bacteria, including Gram-positive bacteria (S. aureus ATCC29213, S. aureus USA300, S. aureus LIM-2, NR-45881, S. aureus HIP13419, NR-46413, E. faecium E155, E. faecium E7314, E. faecium E980, E. faecalis E1246, E. faecalis E7406 and S. pneumonia 153). The antibacterial activity of the compounds was further tested against S. aureus NY-155, NR-46236, S. aureus HIP12864, NR-46074, S. aureus 880 (BR-VRSA), NR-49120, E. faecalis E1246, E. faecalis E7604, as well as some Gram-negative bacteria (Escherichia coli and Klebsiella pneumoniae). Minimum inhibitory concentrations (MICs) in μg/mL were performed according to the CLSI guidelines. From glycerol stocks, bacterial strains were cultured on blood agar plates and incubated at 37° C. for 18 h. A single colony was transferred to tryptic soy broth (TSB) with 0.002% polysorbate 80 (p80). For the Enterococcus, VISA and VRSA strains, the cultures were grown at 37° C. until the optical density of the suspension reached a level equivalent to the 0.5 McFarland standard. The bacterial suspensions were diluted in TSB with 0.002% p80 to reach a bacterial cell density of 10^6 CFU/mL. In case of the other (vancomycin-sensitive) S. aureus strains, the direct colony suspension method was used. For these strains, after transfer of the colonies to TSB with 0.002% p80, they were immediately diluted to 10^6 CFU/mL, instead of incubated prior to this dilution. In the case of S. pneumonia, direct colony suspension was used by immediately suspending multiple colonies from fresh blood agar plates in TSB+0.002% p80 to an OD600 of 0.5 and subsequent dilution to 10^6 CFU mL^−1 in TSB+0.002% p80+5% lysed horse blood. Antibiotic dilutions for this strains were also made in TSB+0.002% p80+5% lysed horse blood. Both agar and microplates containing S. pneumonia were incubated at 37° C. with 5% CO2 for 24 h with constant shaking (600 rpm). […] The cultures were grown to exponential phase (OD600=0.5) at 37° C. […] In polypropylene 96-well microtiter plates, test compounds were added in biological triplicates and serial diluted 2-fold by transfer and mixing from one well to the next to achieve a final volume of 50 μL per well. An equal volume of bacterial suspension (10^6 CFU mL^−1) was added to the wells. The plates were sealed with breathable membranes and incubated at 37° C. for 24 h with constant shaking (600 rpm). In polypropylene microtiter plates, 100 μL of the test compounds was added to the first row in biological triplicates, and 50 μL of media was added to the other wells. The compounds were subjected to serial dilution by transfer and mixing of 50 μL from one well to the next. Subsequently, 50 μL of bacterial suspension (10^6 CFU/mL) was added to the wells. The plates were sealed with breathable membranes and incubated at 37° C. for 24 h with constant shaking (600 rpm). Positive growth control consisted of wells with bacterial suspension and without antibiotic. Negative growth control consisted of solely media without bacterial suspension or antibiotic. The MICs were determined from the median of a minimum of triplicates.

[2] = E. faecalis E1246 VRE (vanA), Table 9
[3] = panel of 31 vancomycin-resistant E. faecium strains

CCCCCCCCNC(N)=Nc1ccc(CN[C@@]2(C)C[C@H](O[C@H]3[C@H](Oc4c5cc6cc4Oc4ccc(cc4Cl)[C@@H](O)[C@@H](NC(=O)[C@@H](CC(C)C)NC)C(=O)N[C@@H](CC(N)=O)C(=O)N[C@H]6C(=O)N[C@H]4C(=O)N[C@H](C(=O)N[C@H](C(=O)O)c6cc(O)cc(O)c6-c6cc4ccc6O)[C@H](O)c4ccc(c(Cl)c4)O5)O[C@H](CO)[C@@H](O)[C@@H]3O)O[C@@H](C)[C@H]2O)cc1 [Compound 6]
4 µg/mL: MIC (E. faecium E7413; E. faecium E7413, VanA) | MIC (E. faecium EO321; E. faecium EO321, VanA) | MIC (E. faecium E0333; E. faecium E0333, VanA) | MIC90 [1, 3]
8 µg/mL: MIC (E. faecalis E1246; E. faecalis E1246 VRE (VanA), Table 7) | MIC (E. faecalis E1246; [2])
0.5 µg/mL: MIC (E. faecium E6016; E. faecium E6016, VanA) | MIC50 [1, 3]
0.25 µg/mL: MIC (E. faecium E0745; E. faecium E0745, VanA)
≤0.008 µg/mL: MIC (E. faecium E7403; E. faecium E7403, VanB) | MIC (E. faecium E7424; E. faecium E7424, VanB) | MIC (E. faecium E8218; E. faecium E8218, VanB) | MIC (E. faecium E7464; E. faecium E7464, VanB) | MIC (E. faecium E1130; E. faecium E1130, VanA) | MIC (E. faecium E7329; E. faecium E7329, VanA) | MIC (E. faecium E7401; E. faecium E7401, VanB) | MIC (E. faecium E8235; E. faecium E8235, VanB)
1 µg/mL: MIC (E. faecium E0013; E. faecium E0013, VanA) | MIC (E. faecium E2297; E. faecium E2297, VanA)
2 µg/mL: MIC (E. faecium E8237; E. faecium E8237, VanA) | MIC (E. faecium E0300; E. faecium E0300, VanA) | MIC (E. faecium E0506; E. faecium E0506, VanA)
0.01562 µg/mL: MIC (E. faecium E980; E. faecium E980 VSE)

CCCCCCCCCCNCCN[C@@]1(C)C[C@H](O[C@H]2[C@H](Oc3c4cc5cc3Oc3ccc(cc3Cl)[C@@H](O)[C@@H](NC(=O)[C@@H](CC(C)C)NC)C(=O)N[C@@H](CC(N)=O)C(=O)N[C@H]5C(=O)N[C@H]3C(=O)N[C@H](C(=O)N[C@H](C(=O)O)c5cc(O)c(CNCP(=O)(O)O)c(O)c5-c5cc3ccc5O)[C@H](O)c3ccc(c(Cl)c3)O4)O[C@H](CO)[C@@H](O)[C@@H]2O)O[C@@H](C)[C@H]1O [Telavancin, reference compound]
4 µg/mL: MIC (E. faecium E6016; Enterococcus faecium, E6016) | MIC (E. faecium E0745; Enterococcus faecium, E0745) | MIC (E. faecium E0013; Enterococcus faecium, E0013) | MIC (E. faecium E0506; Enterococcus faecium, E0506) | MIC (E. faecium E2297; Enterococcus faecium, E2297) | MIC (E. faecalis E1246; [2]) | MIC (E. faecalis E1246; Enterococcus faecalis, VRE) | MIC50 ([1]; Enterococcus faecium)
16 µg/mL: MIC (E. faecium E8237; Enterococcus faecium, E8237) | MIC (E. faecium EO321; Enterococcus faecium, EO321)
≤ 0.008 µg/mL: MIC (E. faecium E7403; Enterococcus faecium, E7403) | MIC (E. faecium E7424; Enterococcus faecium, E7424) | MIC (E. faecium E8218; Enterococcus faecium, E8218) | MIC (E. faecium E7464; Enterococcus faecium, E7464) | MIC (E. faecium E1130; Enterococcus faecium, E1130) | MIC (E. faecium E7329; Enterococcus faecium, E7329) | MIC (E. faecium E7401; Enterococcus faecium, E7401) | MIC (E. faecium E8235; Enterococcus faecium, E8235)
8 µg/mL: MIC (E. faecium E7413; Enterococcus faecium, E7413) | MIC (E. faecium E0300; Enterococcus faecium, E0300) | MIC (E. faecium E0333; Enterococcus faecium, E0333) | MIC90 ([1]; Enterococcus faecium)
0.0156 µg/mL: MIC (E. faecium E980; Enterococcus faecium, E980)
